Laboratory results taken from PubChem BioAssay (NCI).
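Where inhibition never reached the appropriate level, the endpoint shown equals the highest concentration tested. Otherwise, values were interpolated linearly from a five-concentration, 48-hour dose response in 96-well plates. TGI marks complete inhibition of growth.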

Key:
Assay in all cases: NCI-60 cell line screen, 48 h
HT29 colon = system: HT29 colon
HCT-116 colon = system: HCT-116 colon
NCI-H460 lung = system: NCI-H460 lung
COLO 205 colon = system: COLO 205 colon
KM20L2 colon = system: KM20L2 colon
SK-OV-3 ovarian = system: SK-OV-3 ovarian
OVCAR-5 ovarian = system: OVCAR-5 ovarian
786-0 renal = system: 786-0 renal
SK-MEL-2 melanoma = system: SK-MEL-2 melanoma
SF-268 CNS = system: SF-268 CNS
DMS 114 small cell lung = system: DMS 114 small cell lung
OVCAR-3 ovarian = system: OVCAR-3 ovarian
IGROV1 ovarian = system: IGROV1 ovarian
TK-10 renal = system: TK-10 renal
ACHN renal = system: ACHN renal
HL-60(TB) leukemia = system: HL-60(TB) leukemia
MALME-3M melanoma = system: MALME-3M melanoma
SNB-78 CNS = system: SNB-78 CNS
NCI-H522 lung = system: NCI-H522 lung
SF-295 CNS = system: SF-295 CNS
CCRF-CEM leukemia = system: CCRF-CEM leukemia
LOX IMVI melanoma = system: LOX IMVI melanoma
DLD-1 colon = system: DLD-1 colon
U251 CNS = system: U251 CNS
HCC-2998 colon = system: HCC-2998 colon
UACC-62 melanoma = system: UACC-62 melanoma
SK-MEL-5 melanoma = system: SK-MEL-5 melanoma
OVCAR-8 ovarian = system: OVCAR-8 ovarian
SF-539 CNS = system: SF-539 CNS
KM12 colon = system: KM12 colon
NCI-H23 lung = system: NCI-H23 lung
UO-31 renal = system: UO-31 renal
HOP-62 NSCLC = system: HOP-62 NSCLC
OVCAR-4 ovarian = system: OVCAR-4 ovarian
SN12C renal = system: SN12C renal
RXF 393 renal = system: RXF 393 renal
MOLT-4 leukemia = system: MOLT-4 leukemia
SK-MEL-28 melanoma = system: SK-MEL-28 melanoma
HCT-15 colon = system: HCT-15 colon
CAKI-1 renal = system: CAKI-1 renal
NCI-H226 lung = system: NCI-H226 lung
SNB-19 CNS = system: SNB-19 CNS
M19-MEL melanoma = system: M19-MEL melanoma
XF 498 CNS = system: XF 498 CNS
EKVX NSCLC = system: EKVX NSCLC
A549 NSCLC = system: A549 NSCLC
SW-620 colon = system: SW-620 colon
SR leukemia = system: SR leukemia
DMS 273 small cell lung = system: DMS 273 small cell lung
LXFL 529 NSCLC = system: LXFL 529 NSCLC
RPMI-8226 leukemia = system: RPMI-8226 leukemia
UACC-257 melanoma = system: UACC-257 melanoma
M14 melanoma = system: M14 melanoma
SNB-75 CNS = system: SNB-75 CNS
HOP-92 NSCLC = system: HOP-92 NSCLC
RXF-631 renal = system: RXF-631 renal
A498 renal = system: A498 renal
K-562 leukemia = system: K-562 leukemia
HOP-18 NSCLC = system: HOP-18 NSCLC

SMILES: COC1(OC)C2(Cl)C3=CCCC=C3C1(Cl)C(Cl)=C2Cl
- TGI (HT29 colon): 84.3 µM
- TGI (HCT-116 colon): 43.9 µM
- TGI (NCI-H460 lung): > 100 µM
- TGI (COLO 205 colon): 37.7 µM
- TGI (KM20L2 colon): 60.4 µM
- TGI (SK-OV-3 ovarian): 72.6 µM
- TGI (OVCAR-5 ovarian): 83.9 µM
- TGI (786-0 renal): > 100 µM
- TGI (SK-MEL-2 melanoma): 36 µM
- TGI (SF-268 CNS): > 100 µM
- TGI (DMS 114 small cell lung): 49.9 µM
- TGI (OVCAR-3 ovarian): 43.8 µM
- TGI (IGROV1 ovarian): > 100 µM
- TGI (TK-10 renal): > 100 µM
- TGI (ACHN renal): > 100 µM
- TGI (HL-60(TB) leukemia): 33.2 µM
- TGI (MALME-3M melanoma): 49.2 µM
- TGI (SNB-78 CNS): > 100 µM
- TGI (NCI-H522 lung): 33 µM
- TGI (SF-295 CNS): 74.2 µM
- TGI (CCRF-CEM leukemia): 42.4 µM
- TGI (LOX IMVI melanoma): 30.2 µM
- TGI (DLD-1 colon): > 100 µM
- TGI (U251 CNS): 82.1 µM
- TGI (HCC-2998 colon): > 100 µM
- TGI (UACC-62 melanoma): > 100 µM
- TGI (SK-MEL-5 melanoma): 29.2 µM
- TGI (OVCAR-8 ovarian): > 100 µM
- TGI (SF-539 CNS): > 100 µM
- TGI (KM12 colon): > 100 µM
- TGI (NCI-H23 lung): 62.2 µM
- TGI (UO-31 renal): 69 µM
- TGI (HOP-62 NSCLC): 71.1 µM
- TGI (OVCAR-4 ovarian): > 100 µM
- TGI (SN12C renal): > 100 µM
- TGI (RXF 393 renal): 47.8 µM
- TGI (MOLT-4 leukemia): 76.9 µM
- TGI (SK-MEL-28 melanoma): > 100 µM
- TGI (HCT-15 colon): > 100 µM
- TGI (CAKI-1 renal): 84.2 µM
- TGI (NCI-H226 lung): 82.4 µM
- TGI (SNB-19 CNS): > 100 µM
- TGI (M19-MEL melanoma): 47.4 µM
- TGI (XF 498 CNS): 50.2 µM
- TGI (EKVX NSCLC): 71.5 µM
- TGI (A549 NSCLC): > 100 µM
- TGI (SW-620 colon): 36.9 µM
- TGI (SR leukemia): 53.5 µM
- TGI (DMS 273 small cell lung): 39.8 µM
- TGI (LXFL 529 NSCLC): > 100 µM
- TGI (RPMI-8226 leukemia): 34 µM
- TGI (UACC-257 melanoma): 75.1 µM
- TGI (M14 melanoma): 31.4 µM
- TGI (SNB-75 CNS): > 100 µM
- TGI (HOP-92 NSCLC): 70.1 µM
- TGI (RXF-631 renal): 30.3 µM

SMILES: CC(=O)N1[C@H](C(=O)O)CS[C@H]1c1ccc(F)cc1
- TGI (HT29 colon): > 100 µM
- TGI (HCT-116 colon): 78.7 µM
- TGI (NCI-H460 lung): > 100 µM
- TGI (COLO 205 colon): > 100 µM
- TGI (OVCAR-5 ovarian): > 100 µM
- TGI (786-0 renal): > 100 µM
- TGI (SF-268 CNS): > 100 µM
- TGI (DMS 114 small cell lung): > 100 µM
- TGI (OVCAR-3 ovarian): > 100 µM
- TGI (IGROV1 ovarian): > 100 µM
- TGI (TK-10 renal): > 100 µM
- TGI (ACHN renal): > 100 µM
- TGI (HL-60(TB) leukemia): > 100 µM
- TGI (MALME-3M melanoma): > 100 µM
- TGI (SNB-78 CNS): > 100 µM
- TGI (SF-295 CNS): > 100 µM
- TGI (CCRF-CEM leukemia): > 100 µM
- TGI (LOX IMVI melanoma): > 100 µM
- TGI (HCC-2998 colon): > 100 µM
- TGI (SK-MEL-5 melanoma): > 100 µM
- TGI (OVCAR-8 ovarian): > 100 µM
- TGI (SF-539 CNS): > 100 µM
- TGI (A498 renal): > 100 µM
- TGI (NCI-H23 lung): > 100 µM
- TGI (UO-31 renal): > 100 µM
- TGI (HOP-62 NSCLC): > 100 µM
- TGI (OVCAR-4 ovarian): > 100 µM
- TGI (SN12C renal): > 100 µM
- TGI (RXF 393 renal): > 100 µM
- TGI (MOLT-4 leukemia): > 100 µM
- TGI (SK-MEL-28 melanoma): > 100 µM
- TGI (HCT-15 colon): > 100 µM
- TGI (CAKI-1 renal): > 100 µM
- TGI (NCI-H226 lung): > 100 µM
- TGI (K-562 leukemia): > 100 µM
- TGI (SNB-19 CNS): > 100 µM
- TGI (M19-MEL melanoma): > 100 µM
- TGI (A549 NSCLC): > 100 µM
- TGI (SW-620 colon): > 100 µM
- TGI (SR leukemia): > 100 µM
- TGI (HOP-18 NSCLC): > 100 µM
- TGI (LXFL 529 NSCLC): > 100 µM
- TGI (UACC-257 melanoma): > 100 µM
- TGI (M14 melanoma): > 100 µM
- TGI (SNB-75 CNS): > 100 µM
- TGI (HOP-92 NSCLC): > 100 µM
- TGI (RXF-631 renal): > 100 µM
